Key:
[1] = system: Phaseolus vulgaris L. cv. Pinto; assay: Bean second and third internode elongation bioassay (glass house); assay type: in vivo; settings: for % increase compared with control, Total elongation (internode 2 + internode 3) / % increase compared with control, Internode 2 / % increase compared with control, Internode 3: applied through wound site, scored after 10 days; for % increase compared with control, Internode 2 / % increase compared with control, Internode 3: 8 replicates; for elongation of internode 3 (in words) / elongation of internodes by rate (in words): Table 2; for elongation of internode 3 (in words): standard at low concentrations; for elongation of internodes by rate (in words): rates 6, 20 and 200 per plant
Protocol: Bean seeds of Phaseolus vulgaris L. cv. Pinto were germinated in drench soil in 140 ml pots; pots with 7-day old seedlings were thinned out to one seedling per pot. Young plants of 12-14 days with 2-3 mm long second internodes were used in bioassay screening experiments. Germination, early plant growth as well the screening of growth symptoms of young plants after application of compounds of formula (I) were done under similar glass house conditions: temperature 22° C. day/18° C. night, humidity 60%, day length 15 h day/9 h night. Plants were watered manually on a daily basis, as needed.
Compounds of formula (I) were applied through a wound site using a micropipette. The wound site was introduced through removal of one of the twin leaves of the first set of true leaves. Small amounts of compounds were delivered at a time. The wound site was sealed with […] of Vaseline that was applied using a cotton ear bud. Compounds of formula (I) were dissolved in 99% ethanol and for the control/check a similar volume was used as for all treatments and in this case, the solution only contained 99% ethanol. Dilutions of stock solutions were made with distilled water. Eight replicates were included per treatment, including for the control. The scoring of growth elongation effects was performed after 10 days.
Growth promotion of bean plants by compounds of formula (I) was tested by scoring elongation of the second and third internode of bean plants. Scoring of growth stimulation effects was done by careful cutting and measuring the length of the two internodes. All compounds were tested at three rates (in […] per plant): 6, 20 and 200. Values represent the average percentage increase in stem elongation compared with the untreated control.

maize = assay: Field trials on maize at 2 locations in South Africa (Kransfontein, Lindley), spray application at 5-6 leaf growth stage; assay type: in vivo; settings: for Number of cobs per plot / Plant height 9-10 leaf stage / Plant height 10 leaf stage / Yield / Plant height 6-7 leaf stage / Plant height 9 leaf stage: mean of 6 replicates
Protocol: Field trials were carried out at 2 locations in South Africa on maize. Treatments as shown in tables 3 and 4 were applied by spray application at 5-6 leaf growth stage. Assessments were made of plant height, number of maize cobs per plot, and total maize yield at the end of the trial. The results in Table 3 and 4 are the mean of 6 replicates per treatment. The standard is an analog of the Formula I of the present invention, as described in WO2009/115060 (formula IV).

C[C@]12CCC3[C@@H](CC(F)(F)[C@@]4(F)C[C@H](O)CC[C@]34C)C1CC[C@@H]2O (stereo partly drawn) [Compound P1, 5-Fluoro-6α,6β-difluoro-3α,17β-dihydroxy-5α-androstan]
% increase compared with control, Total elongation (internode 2 + internode 3) ([1]; 6 μg per plant): 0% | % increase compared with control, Internode 2 ([1]; 6 μg per plant): 0% | % increase compared with control, Internode 3 ([1]; 6 μg per plant): 0% | % increase compared with control, Total elongation (internode 2 + internode 3) ([1]; 20 μg per plant): 160% | % increase compared with control, Internode 2 ([1]; 20 μg per plant): 44% | % increase compared with control, Internode 3 ([1]; 20 μg per plant): 116% | % increase compared with control, Total elongation (internode 2 + internode 3) ([1]; 200 μg per plant): 108% | % increase compared with control, Internode 2 ([1]; 200 μg per plant): 30% | % increase compared with control, Internode 3 ([1]; 200 μg per plant): 78% | elongation of internode 3 (in words) [1]: strong elongation of internode 3 | elongation of internodes by rate (in words) [1]: at the highest two rates, but not at the lowest rate

CC(C)[C@@H](C)[C@@H](O)[C@H](O)[C@@H](C)[C@H]1CC[C@H]2[C@@H]3COC(=O)[C@H]4C[C@H](O)[C@H](O)C[C@]4(C)[C@H]3CC[C@]12C [Standard, 24-epi-brassinolide, reference compound]
% increase compared with control, Total elongation (internode 2 + internode 3) ([1]; 6 μg per plant): 154% | % increase compared with control, Internode 2 ([1]; 6 μg per plant): 150% | % increase compared with control, Internode 3 ([1]; 6 μg per plant): 4% | elongation of internode 3 (in words) [1]: almost no elongation of the third internode | Number of cobs per plot, % increase compared to untreated control (maize; Kransfontein, 0.3 g AI/ha): −4.3% | Plant height 9-10 leaf stage, % increase compared to untreated control (maize; Kransfontein, 0.3 g AI/ha): 1.7% | Plant height 10 leaf stage, % increase compared to untreated control (maize; Kransfontein, 0.3 g AI/ha): 2.1% | Yield, % increase compared to untreated control (maize; Kransfontein, 0.3 g AI/ha): −2.8% | Number of cobs per plot (maize; Kransfontein, 0.3 g AI/ha): 33.3 | Plant height 9-10 leaf stage (maize; Kransfontein, 0.3 g AI/ha): 36.3 cm | Plant height 10 leaf stage (maize; Kransfontein, 0.3 g AI/ha): 48.7 cm | Yield (maize; Kransfontein, 0.3 g AI/ha): 4017.9 kg/ha | Number of cobs per plot, % increase compared to untreated control (maize; Kransfontein, 0.6 g AI/ha): −2.9% | Plant height 9-10 leaf stage, % increase compared to untreated control (maize; Kransfontein, 0.6 g AI/ha): 3.6% | Plant height 10 leaf stage, % increase compared to untreated control (maize; Kransfontein, 0.6 g AI/ha): 3.4% | Yield, % increase compared to untreated control (maize; Kransfontein, 0.6 g AI/ha): −3.6% | Number of cobs per plot (maize; Kransfontein, 0.6 g AI/ha): 33.8 | Plant height 9-10 leaf stage (maize; Kransfontein, 0.6 g AI/ha): 37.0 cm | Plant height 10 leaf stage (maize; Kransfontein, 0.6 g AI/ha): 49.3 cm | Yield (maize; Kransfontein, 0.6 g AI/ha): 3985.2 kg/ha | Number of cobs per plot, % increase compared to untreated control (maize; Lindley, 0.3 g AI/ha): 1.1% | Plant height 6-7 leaf stage, % increase compared to untreated control (maize; Lindley, 0.3 g AI/ha): 3.4% | Plant height 9 leaf stage, % increase compared to untreated control (maize; Lindley, 0.3 g AI/ha): 1.6% | Yield, % increase compared to untreated control (maize; Lindley, 0.3 g AI/ha): 2.0% | Number of cobs per plot (maize; Lindley, 0.3 g AI/ha): 60.0 | Plant height 6-7 leaf stage (maize; Lindley, 0.3 g AI/ha): 21.5 cm | Plant height 9 leaf stage (maize; Lindley, 0.3 g AI/ha): 31.0 cm | Yield (maize; Lindley, 0.3 g AI/ha): 10976.9 kg/ha | Number of cobs per plot, % increase compared to untreated control (maize; Lindley, 0.6 g AI/ha): 2.5% | Plant height 6-7 leaf stage, % increase compared to untreated control (maize; Lindley, 0.6 g AI/ha): 1.9% | Plant height 9 leaf stage, % increase compared to untreated control (maize; Lindley, 0.6 g AI/ha): 2.6% | Yield, % increase compared to untreated control (maize; Lindley, 0.6 g AI/ha): 1.2% | Number of cobs per plot (maize; Lindley, 0.6 g AI/ha): 60.8 | Plant height 6-7 leaf stage (maize; Lindley, 0.6 g AI/ha): 21.2 cm | Plant height 9 leaf stage (maize; Lindley, 0.6 g AI/ha): 31.3 cm | Yield (maize; Lindley, 0.6 g AI/ha): 10890.5 kg/ha

C[C@]12CCC3[C@@H](CC(F)(F)[C@H]4C[C@H](O)CC[C@]34C)C1CC[C@@H]2O (stereo partly drawn) [Compound P2, 6α,6β-difluoro-3α,17β-diol-5α-androstan]
% increase compared with control, Total elongation (internode 2 + internode 3) ([1]; 6 μg per plant): 0% | % increase compared with control, Internode 2 ([1]; 6 μg per plant): 0% | % increase compared with control, Internode 3 ([1]; 6 μg per plant): 0% | % increase compared with control, Total elongation (internode 2 + internode 3) ([1]; 20 μg per plant): 160% | % increase compared with control, Internode 2 ([1]; 20 μg per plant): 50% | % increase compared with control, Internode 3 ([1]; 20 μg per plant): 110% | % increase compared with control, Total elongation (internode 2 + internode 3) ([1]; 200 μg per plant): 54% | % increase compared with control, Internode 2 ([1]; 200 μg per plant): 31% | % increase compared with control, Internode 3 ([1]; 200 μg per plant): 23% | elongation of internode 3 (in words) [1]: strong elongation of internode 3 | elongation of internodes by rate (in words) [1]: at the highest two rates, but not at the lowest rate

CO[C@]12C[C@H](O)CC[C@]1(C)[C@H]1CC[C@]3(C)[C@@H](O)CC[C@H]3[C@@H]1CC2=O [Compound P3, 5-methoxy-3α,17β-dihydroxyl-5α-androstan-6-one]
% increase compared with control, Total elongation (internode 2 + internode 3) ([1]; 6 μg per plant): 17% | % increase compared with control, Internode 2 ([1]; 6 μg per plant): 13% | % increase compared with control, Internode 3 ([1]; 6 μg per plant): 4% | % increase compared with control, Total elongation (internode 2 + internode 3) ([1]; 20 μg per plant): 54% | % increase compared with control, Internode 2 ([1]; 20 μg per plant): 6% | % increase compared with control, Internode 3 ([1]; 20 μg per plant): 48% | % increase compared with control, Total elongation (internode 2 + internode 3) ([1]; 200 μg per plant): 113% | % increase compared with control, Internode 2 ([1]; 200 μg per plant): 43% | % increase compared with control, Internode 3 ([1]; 200 μg per plant): 70% | elongation of internode 3 (in words) [1]: strong elongation of internode 3 | elongation of internodes by rate (in words) [1]: elongation of both internodes at all three rates tested | Number of cobs per plot, % increase compared to untreated control (maize; Kransfontein, 0.3 g AI/ha): 0.5% | Plant height 9-10 leaf stage, % increase compared to untreated control (maize; Kransfontein, 0.3 g AI/ha): 6.4% | Plant height 10 leaf stage, % increase compared to untreated control (maize; Kransfontein, 0.3 g AI/ha): 3.8% | Yield, % increase compared to untreated control (maize; Kransfontein, 0.3 g AI/ha): 1.7% | Number of cobs per plot (maize; Kransfontein, 0.3 g AI/ha): 35.0 | Plant height 9-10 leaf stage (maize; Kransfontein, 0.3 g AI/ha): 38.0 cm | Plant height 10 leaf stage (maize; Kransfontein, 0.3 g AI/ha): 49.5 cm | Yield (maize; Kransfontein, 0.3 g AI/ha): 4203.2 kg/ha | Number of cobs per plot, % increase compared to untreated control (maize; Kransfontein, 0.6 g AI/ha): 7.7% | Plant height 9-10 leaf stage, % increase compared to untreated control (maize; Kransfontein, 0.6 g AI/ha): 3.1% | Plant height 10 leaf stage, % increase compared to untreated control (maize; Kransfontein, 0.6 g AI/ha): 4.2% | Yield, % increase compared to untreated control (maize; Kransfontein, 0.6 g AI/ha): 2.3% | Number of cobs per plot (maize; Kransfontein, 0.6 g AI/ha): 37.5 | Plant height 9-10 leaf stage (maize; Kransfontein, 0.6 g AI/ha): 36.8 cm | Plant height 10 leaf stage (maize; Kransfontein, 0.6 g AI/ha): 49.7 cm | Yield (maize; Kransfontein, 0.6 g AI/ha): 4227.3 kg/ha | Number of cobs per plot, % increase compared to untreated control (maize; Lindley, 0.3 g AI/ha): 2.0% | Plant height 6-7 leaf stage, % increase compared to untreated control (maize; Lindley, 0.3 g AI/ha): 4.8% | Plant height 9 leaf stage, % increase compared to untreated control (maize; Lindley, 0.3 g AI/ha): 5.9% | Yield, % increase compared to untreated control (maize; Lindley, 0.3 g AI/ha): 3.3% | Number of cobs per plot (maize; Lindley, 0.3 g AI/ha): 60.5 | Plant height 6-7 leaf stage (maize; Lindley, 0.3 g AI/ha): 21.8 cm | Plant height 9 leaf stage (maize; Lindley, 0.3 g AI/ha): 32.3 cm | Yield (maize; Lindley, 0.3 g AI/ha): 1115.9 kg/ha | Number of cobs per plot, % increase compared to untreated control (maize; Lindley, 0.6 g AI/ha): 4.5% | Plant height 6-7 leaf stage, % increase compared to untreated control (maize; Lindley, 0.6 g AI/ha): 3.4% | Plant height 9 leaf stage, % increase compared to untreated control (maize; Lindley, 0.6 g AI/ha): 8.9% | Yield, % increase compared to untreated control (maize; Lindley, 0.6 g AI/ha): 3.1% | Number of cobs per plot (maize; Lindley, 0.6 g AI/ha): 62.0 | Plant height 6-7 leaf stage (maize; Lindley, 0.6 g AI/ha): 21.5 cm | Plant height 9 leaf stage (maize; Lindley, 0.6 g AI/ha): 33.2 cm | Yield (maize; Lindley, 0.6 g AI/ha): 11099.4 kg/ha

Reference: patent US20140045697A1, “ANDROSTANEDIOL DERIVATIVES AS PLANT GROWTH REGULATOR COMPOUNDS” (priority 2011, published 2014)
